Experimental data taken from US10780074B2, “Compounds and uses thereof” (Sunovion Pharmaceuticals Inc., priority 2017, dated 2020).
Structures can show the parent of a compound that is named as a salt. Where two headings read alike, the source gives them in different places.

Tested on: behaviors of compound-treated mice
Test: Neuropharmacological Assay (SmartCube)
Type: in vivo
Settings: for minimal effective dose: Mus musculus, ip, 0.25 h, dose having 50% or more total activity in SmartCube, read-out: MED (minimal effective dose)
Description: Neuropharmacological Assay (SmartCube™)
Neurosci. 2011 Sep. 9; 5:103 (doi: 10.3389/fnins.2011.00103) (“Roberds”). As reported in Roberds, because psychiatric diseases generally result from disorders of cell-cell communication or circuitry, intact systems are useful in detecting improvement in disease-relevant endpoints. These endpoints are typically behavioral in nature, often requiring human observation and interpretation. To facilitate testing of multiple compounds for behavioral effects relevant to psychiatric disease, PsychoGenics, Inc. (Tarrytown, N.Y., “PGI”) developed SmartCube™, an automated system in which behaviors of compound-treated mice are captured by digital video and analyzed with computer algorithms. (D. Brunner et al., Drug Discov. Today 2002, 7:S107-S112). PGI Analytical Systems uses data from SmartCube™ to compare the behavioral signature of a test compound to a database of behavioral signatures obtained using a large set of diverse reference compounds. (The composition of the database as well as validation of the method is further described in Roberds). In this way, the neuropharmacological effects of a test compound can be predicted by similarity to major classes of compounds, such as antipsychotics, anxiolytics and antidepressants.
The SmartCube™ system produces an activity signature indicating the probability that the activity of the test compound at the administered dose matches a given class of neuropharmacological agents. (See, e.g., Roberds, FIGS. 2 and 3). The test compound is simultaneously compared against multiple classes of agents; thus, a separate probability is generated for each behavioral effect measured (e.g., anxiolytic activity, analgesic activity, etc.). In the table below, these probabilities are reported for each behavioral effect measured as follows:
Provided compounds were dissolved in a mixture of Pharmasolve™ (N-methyl-2-pyrrolidone), polyethylene glycol and propylene glycol, and were injected i.p. 15 min. before the behavioral test. For each compound, injections were administered at 3 different doses. For each behavioral effect measured, results for the most efficacious dose(s) are presented. In the table below, DP: anti-depressant; AX: anxiolytic; SD: sedative hypnotic; PS: anti-psychotic; MS: mood stabilizer; AD: ADHD; CE: cognitive enhancer; AG: analgesic; UN: uncharacterized CNS activity.
The potency of many of the compounds in the table was also determined in the SmartCube™ system. Test compounds were routinely examined at dose levels of 0.3, 1, 3 10 and 30 mg per kg (mpk), although the dose range was increased or decreased if necessary to obtain a full dose response curve. A compound's minimal effective dose (MED) is a measure of the compounds potency. The MED was defined as the dose (in mpk) having 50% or more total activity in SmartCube.

[1] = i.p. 15 min before behavioral test, most efficacious dose(s) of 3 doses
[2] = SmartCube, i.p. 15 min before test, most efficacious dose(s)

## CNC[C@@H]1OCCc2ccc(-c3cncnc3)cc21 (single isomer, unassigned) [Compound 26, hydrochloride]
i.p.
  minimal effective dose: > 30 mg/kg
[1]
  AD: ADHD (probability that activity matches class): + (LOQ ≤ + <5%)
  AG: analgesic (probability that activity matches class): + (LOQ ≤ + <5%)
  AX: anxiolytic (probability that activity matches class): + (LOQ ≤ + <5%)
  CE: cognitive enhancer (probability that activity matches class): + (LOQ ≤ + <5%)
  DP: anti-depressant (probability that activity matches class): + (LOQ ≤ + <5%)
  MS: mood stabilizer (probability that activity matches class): + (LOQ ≤ + <5%)
  PS: anti-psychotic (probability that activity matches class): + (LOQ ≤ + <5%)
  SD: sedative hypnotic (probability that activity matches class): + (LOQ ≤ + <5%)
  UN: uncharacterized CNS activity (probability that activity matches class): + (LOQ ≤ + <5%)

## CNC[C@@H]1OCCc2c1cccc2-n1cccn1 [Compound 186, (R)-1-(5-(1H-pyrazol-1-yl)isochroman-1-yl)-N-methylmethanamine]
  minimal effective dose: 10 to 30 mg/kg
[2]
  AD: ADHD (probability that activity matches class): + (LOQ ≤ + <5%)
  AG: analgesic (probability that activity matches class): + (LOQ ≤ + <5%)
  AX: anxiolytic (probability that activity matches class): ++ (5% ≤ ++ <25%)
  CE: cognitive enhancer (probability that activity matches class): + (LOQ ≤ + <5%)
  DP: anti-depressant (probability that activity matches class): + (LOQ ≤ + <5%)
  MS: mood stabilizer (probability that activity matches class): + (LOQ ≤ + <5%)
  PS: anti-psychotic (probability that activity matches class): + (LOQ ≤ + <5%)
  SD: sedative hypnotic (probability that activity matches class): + (LOQ ≤ + <5%)
  UN: uncharacterized CNS activity (probability that activity matches class): + (LOQ ≤ + <5%)

## CNC[C@@H]1OCCc2cc(-c3ncccn3)ccc21 [Compound 21, (R)—N-Methyl-1-(6-(pyrimidin-2-yl)isochroman-1-yl)methanamine hydrochloride salt]
i.p.
  minimal effective dose: 10 to 30 mg/kg
[1]
  AD: ADHD (probability that activity matches class): + (LOQ ≤ + <5%)
  AG: analgesic (probability that activity matches class): ++ (5% ≤ ++ <25%)
  AX: anxiolytic (probability that activity matches class): ++ (5% ≤ ++ <25%)
  CE: cognitive enhancer (probability that activity matches class): ++ (5% ≤ ++ <25%)
  DP: anti-depressant (probability that activity matches class): ++ (5% ≤ ++ <25%)
  MS: mood stabilizer (probability that activity matches class): + (LOQ ≤ + <5%)
  PS: anti-psychotic (probability that activity matches class): + (LOQ ≤ + <5%)
  SD: sedative hypnotic (probability that activity matches class): + (LOQ ≤ + <5%)
  UN: uncharacterized CNS activity (probability that activity matches class): + (LOQ ≤ + <5%)

## NC[C@H]1OCCc2c(-c3cocn3)cccc21 [Compound 101, (S)-(5-(oxazol-4-yl)isochroman-1-yl)methanamine HCl salt]
i.p.
  minimal effective dose: 3 to 10 mg/kg
[1]
  AD: ADHD (probability that activity matches class): ++ (5% ≤ ++ <25%)
  AG: analgesic (probability that activity matches class): + (LOQ ≤ + <5%)
  AX: anxiolytic (probability that activity matches class): ++ (5% ≤ ++ <25%)
  CE: cognitive enhancer (probability that activity matches class): + (LOQ ≤ + <5%)
  DP: anti-depressant (probability that activity matches class): ++ (5% ≤ ++ <25%)
  MS: mood stabilizer (probability that activity matches class): + (LOQ ≤ + <5%)
  PS: anti-psychotic (probability that activity matches class): + (LOQ ≤ + <5%)
  SD: sedative hypnotic (probability that activity matches class): + (LOQ ≤ + <5%)
  UN: uncharacterized CNS activity (probability that activity matches class): ++ (5% ≤ ++ <25%)

## Cc1cc(-c2cccc3c2CCO[C@H]3CN)cc(C)n1 [Compound 126, dihydrochloride]
i.p.
  minimal effective dose: 10 to 30 mg/kg
[1]
  AD: ADHD (probability that activity matches class): + (LOQ ≤ + <5%)
  AG: analgesic (probability that activity matches class): + (LOQ ≤ + <5%)
  AX: anxiolytic (probability that activity matches class): + (LOQ ≤ + <5%)
  CE: cognitive enhancer (probability that activity matches class): + (LOQ ≤ + <5%)
  DP: anti-depressant (probability that activity matches class): + (LOQ ≤ + <5%)
  MS: mood stabilizer (probability that activity matches class): + (LOQ ≤ + <5%)
  PS: anti-psychotic (probability that activity matches class): + (LOQ ≤ + <5%)
  SD: sedative hypnotic (probability that activity matches class): + (LOQ ≤ + <5%)
  UN: uncharacterized CNS activity (probability that activity matches class): + (LOQ ≤ + <5%)

## CNC[C@H]1OCCc2cccc(-c3cccnc3)c21 [Compound 2, (S)-N-Methyl-1-(8-(pyridin-3-yl)isochroman-1-yl)methanamine bis-hydrochloride]
i.p.
  minimal effective dose: > 30 mg/kg
[1]
  AD: ADHD (probability that activity matches class): + (LOQ ≤ + <5%)
  AG: analgesic (probability that activity matches class): + (LOQ ≤ + <5%)
  AX: anxiolytic (probability that activity matches class): + (LOQ ≤ + <5%)
  CE: cognitive enhancer (probability that activity matches class): + (LOQ ≤ + <5%)
  DP: anti-depressant (probability that activity matches class): + (LOQ ≤ + <5%)
  MS: mood stabilizer (probability that activity matches class): + (LOQ ≤ + <5%)
  PS: anti-psychotic (probability that activity matches class): + (LOQ ≤ + <5%)
  SD: sedative hypnotic (probability that activity matches class): + (LOQ ≤ + <5%)
  UN: uncharacterized CNS activity (probability that activity matches class): + (LOQ ≤ + <5%)

## CNC[C@H]1OCCc2c(-c3cccnc3)cccc21 (single isomer, unassigned) [Compound 8, bis-hydrochloride]
i.p.
  minimal effective dose: ≤ 3 mg/kg
[1]
  AD: ADHD (probability that activity matches class): ++ (5% ≤ ++ <25%)
  AG: analgesic (probability that activity matches class): + (LOQ ≤ + <5%)
  AX: anxiolytic (probability that activity matches class): ++ (5% ≤ ++ <25%)
  CE: cognitive enhancer (probability that activity matches class): + (LOQ ≤ + <5%)
  DP: anti-depressant (probability that activity matches class): ++++ (50% ≤ ++++)
  MS: mood stabilizer (probability that activity matches class): + (LOQ ≤ + <5%)
  PS: anti-psychotic (probability that activity matches class): + (LOQ ≤ + <5%)
  SD: sedative hypnotic (probability that activity matches class): + (LOQ ≤ + <5%)
  UN: uncharacterized CNS activity (probability that activity matches class): + (LOQ ≤ + <5%)

## CNC[C@H]1OCCc2c(-c3cncnc3)cccc21 (single isomer, unassigned) [Compound 30, hydrochloride salt]
i.p.
  minimal effective dose: 3 to 10 mg/kg
[1]
  AD: ADHD (probability that activity matches class): ++ (5% ≤ ++ <25%)
  AG: analgesic (probability that activity matches class): ++ (5% ≤ ++ <25%)
  AX: anxiolytic (probability that activity matches class): ++ (5% ≤ ++ <25%)
  CE: cognitive enhancer (probability that activity matches class): ++ (5% ≤ ++ <25%)
  DP: anti-depressant (probability that activity matches class): ++++ (50% ≤ ++++)
  MS: mood stabilizer (probability that activity matches class): + (LOQ ≤ + <5%)
  PS: anti-psychotic (probability that activity matches class): + (LOQ ≤ + <5%)
  SD: sedative hypnotic (probability that activity matches class): + (LOQ ≤ + <5%)
  UN: uncharacterized CNS activity (probability that activity matches class): + (LOQ ≤ + <5%)

## NC[C@H]1OCCc2c(-c3cccnc3)cccc21 [Compound 16, (S)-(5-(Pyridin-3-yl)isochroman-1-yl)methanamine hydrochloride]
i.p.
  minimal effective dose: ≤ 3 mg/kg
[1]
  AD: ADHD (probability that activity matches class): + (LOQ ≤ + <5%)
  AG: analgesic (probability that activity matches class): + (LOQ ≤ + <5%)
  AX: anxiolytic (probability that activity matches class): ++ (5% ≤ ++ <25%)
  CE: cognitive enhancer (probability that activity matches class): ++ (5% ≤ ++ <25%)
  DP: anti-depressant (probability that activity matches class): ++++ (50% ≤ ++++)
  MS: mood stabilizer (probability that activity matches class): + (LOQ ≤ + <5%)
  PS: anti-psychotic (probability that activity matches class): + (LOQ ≤ + <5%)
  SD: sedative hypnotic (probability that activity matches class): + (LOQ ≤ + <5%)
  UN: uncharacterized CNS activity (probability that activity matches class): + (LOQ ≤ + <5%)

## NC[C@@H]1OCCc2ccc(-c3cccnc3)cc21 (single isomer, unassigned) [Compound 11, hydrochloride]
i.p.
  minimal effective dose: 10 to 30 mg/kg
[1]
  AD: ADHD (probability that activity matches class): + (LOQ ≤ + <5%)
  AG: analgesic (probability that activity matches class): ++ (5% ≤ ++ <25%)
  AX: anxiolytic (probability that activity matches class): + (LOQ ≤ + <5%)
  CE: cognitive enhancer (probability that activity matches class): + (LOQ ≤ + <5%)
  DP: anti-depressant (probability that activity matches class): ++++ (50% ≤ ++++)
  MS: mood stabilizer (probability that activity matches class): + (LOQ ≤ + <5%)
  PS: anti-psychotic (probability that activity matches class): + (LOQ ≤ + <5%)
  SD: sedative hypnotic (probability that activity matches class): + (LOQ ≤ + <5%)
  UN: uncharacterized CNS activity (probability that activity matches class): + (LOQ ≤ + <5%)

## NC[C@@H]1OCCCc2c(-c3ccccn3)cccc21 [Compound 158, (R)-(6-(pyridin-2-yl)-1,3,4,5-tetrahydrobenzo[c]oxepin-1-yl)methanamine hydrochloride salt]
i.p.
  minimal effective dose: 10 to 30 mg/kg
[1]
  AD: ADHD (probability that activity matches class): + (LOQ ≤ + <5%)
  AG: analgesic (probability that activity matches class): + (LOQ ≤ + <5%)
  AX: anxiolytic (probability that activity matches class): ++ (5% ≤ ++ <25%)
  CE: cognitive enhancer (probability that activity matches class): + (LOQ ≤ + <5%)
  DP: anti-depressant (probability that activity matches class): + (LOQ ≤ + <5%)
  MS: mood stabilizer (probability that activity matches class): + (LOQ ≤ + <5%)
  PS: anti-psychotic (probability that activity matches class): + (LOQ ≤ + <5%)
  SD: sedative hypnotic (probability that activity matches class): + (LOQ ≤ + <5%)
  UN: uncharacterized CNS activity (probability that activity matches class): + (LOQ ≤ + <5%)
